In ChEMBL document CHEMBL1126977, “Derivatives of 1-hydroxy-3-aminopyrrolidin-2-one (HA-966). Partial agonists at the glycine site of the NMDA receptor” (Bioorg Med Chem Lett, 1993):

Columns and labels:
[1] = target: Glutamate receptor ionotropic, NMDA 1 (Rattus norvegicus, UniProt P35439); experiment: Inhibition of [3H]glycine binding to rat cortical membranes; format: cell membranes, Membrane
[2] = species: Rattus norvegicus; experiment: In vitro inhibitory activity of glycine (0.3 uM) responses in isolated cultured cortical neurons; format: functional
[3] = Compound was evaluated for the pKa value in experiment 2; format: physicochemical
[4] = Compound was evaluated for the pKa value in experiment 1; format: physicochemical
[5] = species: Rattus norvegicus; experiment: Tested in vitro for the inhibitory constant of glycine (0.3 uM) responses in isolated cultured cortical neurones; format: functional
[6] = Compound was evaluated for the octanol-water partition coefficient […] at pH 7.4; format: physicochemical
[7] = Compound was evaluated for the pKa value; format: physicochemical

| IC50 [1] | Ki [2] | SMILES | Inhibition [2] | further results |
| --- | --- | --- | --- | --- |
| – | – | NC1CCN(OCc2ccccc2)C1=O (stereo not given) | – | pKa [3]: 6.6; pKa [4]: 6.2 |
| 1.4 µM | – | C[C@@H]1CN(O)C(=O)[C@@H]1N (stereo in doubt; (+)-2) | – | Ki [5]: 0.65 µM |
| 27.2 µM | 6.3 µM | N[C@@H]1CCN(O)C1=O (stereo in doubt; 1) | – | logD [6]: 3.52; pKa [7]: 8.1 |
| > 100 µM | – | N[C@H]1C(=O)N(O)C[C@H]1CCO | 59% | – |
| > 100 µM | – | C[C@H]1CN(O)C(=O)[C@@H]1N | – | – |
| 313 µM | – | N[C@H]1C(=O)N(O)C[C@@H]1O | 30% | – |
| 12.5 µM | 2.5 µM | N[C@@H]1CCN(O)C1=O (stereo in doubt; (+)-1) | – | – |
| 15 µM | 15.4 µM | CC[C@@H]1CN(O)C(=O)[C@@H]1N | – | – |
| 2.9 µM | 1.3 µM | C[C@@H]1CN(O)C(=O)[C@@H]1N (stereo in doubt; 2) | – | logD [6]: 3.42; pKa [7]: 8 |
| 86 µM | – | C[C@H]1CN(O)C(=O)[C@H]1N | – | – |
| – | – | C[C@@H]1CN(OCc2ccccc2)C(=O)[C@@H]1N | – | pKa [7]: 6.1 |
| 339 µM | – | NC1CCN(O)C1=O (single isomer, unassigned; (-)) | – | – |
| 1.3 µM | 0.75 µM | N[C@H]1C(=O)N(O)C[C@H]1O | – | – |
| > 100 µM | – | N[C@H]1C(=O)N(O)C[C@H]1c1ccccc1 | 0% | – |
| > 100 µM | – | N[C@H]1C(=O)N(O)C[C@H]1CO | 63% | – |

| SMILES | IC50 [1] | Ki [2] | Inhibition [2] | further results |
| --- | --- | --- | --- | --- |
| O=C1C2CC(CCN2)N1O (stereo not given) | 19 µM | 3.5 µM | – | – |
| CCC[C@@H]1CNC(=O)[C@@H]1N | > 100 µM | – | 39% | – |
| C[C@@H]1C2NCCC1N(O)C2=O (stereo not given in full) | > 100 µM | > 80 µM | – | – |
| O=C1C2NCCC2CN1O (stereo not given) | > 100 µM | – | 52% | – |
| O=C1C2CC(CN2)N1O (stereo not given) | – | 5 µM | – | – |
| O=C1C2CC(CN2)CN1O (stereo not given) | > 100 µM | – | 16% | – |
| C[C@H]1C2NCCC1N(O)C2=O (stereo not given in full) | 48 µM | 8.2 µM | – | – |
| O=C1C2CC(CCN2)CN1O (stereo not given) | > 100 µM | – | 28% | – |
